# Results as given in PubChem BioAssay AID248 (DTP/NCI, 2004).
# “And” between values parts separate entries of the source, which are not always exact repeats. Equal values may be shown once. Toxic doses and inconclusive results are not listed.
# Test system: L1210 leukemia ip in BDF1 mice, survival T/C
# Assay: NCI In Vivo Anticancer Drug Screen. Data for tumor model L1210 Leukemia (intraperitoneal) in B6D2F1 (BDF1) mice
# Conditions: endpoint: mean survival time, higher = longer survival
# How it was run: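 Mice bearing the transplanted tumor received compound or vehicle. Survival of the treated group was divided by that of the vehicle-treated control group to give the ratio.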
# [1] = dose: 200.0 mg/kg/injection, schedule: Q01DX001 (ip), vehicle: carboxymethylcellulose (CMC)
# [2] = dose: 100.0 mg/kg/injection, schedule: Q01DX009 (ip), vehicle: saline with Tween-80
# [3] = dose: 200.0 mg/kg/injection, schedule: Q01DX009 (ip), vehicle: saline with Tween-80
# [4] = dose: 400.0 mg/kg/injection, schedule: Q01DX001 (ip), vehicle: other
# [5] = dose: 400.0 mg/kg/injection, schedule: Q01DX009 (ip), vehicle: saline with Tween-80
# [6] = dose: 100.0 mg/kg/injection, schedule: Q01DX009 (ip), vehicle: saline
# [7] = dose: 100.0 mg/kg/injection, schedule: Q04DX003 (ip), vehicle: saline
# [8] = dose: 200.0 mg/kg/injection, schedule: Q04DX003 (ip), vehicle: saline
# [9] = dose: 400.0 mg/kg/injection, schedule: Q04DX003 (ip), vehicle: saline
# [10] = dose: 100.0 mg/kg/injection, schedule: Q04DX003 (ip), vehicle: saline with Tween-80
# [11] = dose: 200.0 mg/kg/injection, schedule: Q04DX003 (ip), vehicle: saline with Tween-80
# [12] = dose: 100.0 mg/kg/injection, schedule: Q01DX001 (ip), vehicle: carboxymethylcellulose (CMC)
# [13] = dose: 400.0 mg/kg/injection, schedule: Q01DX001 (ip), vehicle: carboxymethylcellulose (CMC)
smiles,measurement,setting,value
O=C(CCn1cccc1)c1csc2ccccc12,T/C,"dose: 10.0 mg/kg/injection, schedule: Q01DX001 (ip), vehicle: carboxymethylcellulose (CMC)",97 % of control
same,T/C,"dose: 20.0 mg/kg/injection, schedule: Q01DX001 (ip), vehicle: carboxymethylcellulose (CMC)",98 % of control
same,T/C,"dose: 40.0 mg/kg/injection, schedule: Q01DX001 (ip), vehicle: carboxymethylcellulose (CMC)",100 % of control
same,T/C,"dose: 80.0 mg/kg/injection, schedule: Q01DX001 (ip), vehicle: carboxymethylcellulose (CMC)",100 % of control
same,T/C,[1],88 % of control
CCOC(=O)/C(O)=C\c1cc[n+]([O-])nc1Cl,T/C,"dose: 100.0 mg/kg/injection, schedule: Q04DX002 (ip), vehicle: Klucel (hydroxypropylcellulose) (HPC)",101 % of control
same,T/C,"dose: 200.0 mg/kg/injection, schedule: Q04DX002 (ip), vehicle: Klucel (hydroxypropylcellulose) (HPC)",101 % of control
same,T/C,"dose: 400.0 mg/kg/injection, schedule: Q04DX002 (ip), vehicle: Klucel (hydroxypropylcellulose) (HPC)",101 % of control
COC(=O)c1nc(N)n[nH]1,T/C,"dose: 100.0 mg/kg/injection, schedule: Q01DX001 (ip), vehicle: other",110 % of control
same,T/C,[2],106 % of control
same,T/C,"dose: 100.0 mg/kg/injection, schedule: Q04DX003 (ip), vehicle: other",102 % of control
same,T/C,"dose: 200.0 mg/kg/injection, schedule: Q01DX001 (ip), vehicle: other",95 % of control
same,T/C,[3],94 % of control
same,T/C,"dose: 200.0 mg/kg/injection, schedule: Q04DX003 (ip), vehicle: other",105 % of control
same,T/C,[4],97 % of control
same,T/C,[5],95 % of control
same,T/C,"dose: 400.0 mg/kg/injection, schedule: Q04DX003 (ip), vehicle: other",102 % of control
C=CCOc1ccn(C)c(=O)n1,T/C,[6],98 % of control
same,T/C,[7],108 % of control
same,T/C,"dose: 200.0 mg/kg/injection, schedule: Q01DX009 (ip), vehicle: saline",101 % of control
same,T/C,[8],97 % of control
same,T/C,"dose: 400.0 mg/kg/injection, schedule: Q01DX009 (ip), vehicle: saline",98 % of control
same,T/C,[9],111 % of control
O/N=C/c1cccc(/C=N/O)c1,T/C,"dose: 50.0 mg/kg/injection, schedule: Q01DX009 (ip), vehicle: saline with Tween-80",94 % of control
same,T/C,"dose: 50.0 mg/kg/injection, schedule: Q04DX003 (ip), vehicle: saline with Tween-80",95 % of control
same,T/C,[2],98 % of control
same,T/C,[10],97 % of control
same,T/C,[3],102 % of control
same,T/C,[11],100 % of control
same,T/C,[5],95 % of control
same,T/C,"dose: 400.0 mg/kg/injection, schedule: Q04DX003 (ip), vehicle: saline with Tween-80",93 % of control
C(=N\N1CCN(/N=C/c2cccc3ccccc23)CC1)/c1cccc2ccccc12,T/C,[12],93 % of control
same,T/C,[1],90 % of control
same,T/C,[13],88 % of control
O=NN(CCCl)C(=O)Nc1ccc(CCO)cc1,T/C,"dose: 0.25 mg/kg/injection, schedule: Q01DX009 (ip), vehicle: saline",112 % of control
same,T/C,"dose: 0.38 mg/kg/injection, schedule: Q01DX009 (ip), vehicle: saline",114 % of control
same,T/C,"dose: 0.59 mg/kg/injection, schedule: Q01DX009 (ip), vehicle: saline",164 % of control
same,T/C,"dose: 0.89 mg/kg/injection, schedule: Q01DX009 (ip), vehicle: saline",205 % of control
same,T/C,"dose: 7.0 mg/kg/injection, schedule: Q01DX009 (ip), vehicle: saline",202 % of control
same,T/C,"dose: 10.0 mg/kg/injection, schedule: Q01DX009 (ip), vehicle: saline",109 % of control
same,T/C,"dose: 78.0 mg/kg/injection, schedule: Q01DX001 (ip), vehicle: other",185 % of control
same,T/C,"dose: 119.0 mg/kg/injection, schedule: Q01DX001 (ip), vehicle: other",201 % of control
same,T/C,"dose: 178.0 mg/kg/injection, schedule: Q01DX001 (ip), vehicle: carboxymethylcellulose (CMC)",242 % of control
same,T/C,"dose: 178.0 mg/kg/injection, schedule: Q01DX001 (ip), vehicle: other",160 % of control and 235 % of control
same,T/C,"dose: 266.0 mg/kg/injection, schedule: Q01DX001 (ip), vehicle: carboxymethylcellulose (CMC)",226 % of control
same,T/C,"dose: 266.0 mg/kg/injection, schedule: Q01DX001 (ip), vehicle: other",193 % of control
same,T/C,[13],276 % of control
same,T/C,[4],182 % of control
same,T/C,"dose: 600.0 mg/kg/injection, schedule: Q01DX001 (ip), vehicle: carboxymethylcellulose (CMC)",244 % of control
CCN(CC)C(C)CNc1cc(C)nc(/N=C(\N)Nc2ccc(Cl)c(Cl)c2)n1 (stereo not given),T/C,"dose: 2.35 mg/kg/injection, schedule: Q01DX009 (ip), vehicle: Klucel (hydroxypropylcellulose) (HPC)",110 % of control
same,T/C,"dose: 4.69 mg/kg/injection, schedule: Q01DX009 (ip), vehicle: Klucel (hydroxypropylcellulose) (HPC)",100 % of control
same,T/C,"dose: 9.38 mg/kg/injection, schedule: Q01DX009 (ip), vehicle: Klucel (hydroxypropylcellulose) (HPC)",98 % of control and 100 % of control
same,T/C,"dose: 37.5 mg/kg/injection, schedule: Q01DX009 (ip), vehicle: Klucel (hydroxypropylcellulose) (HPC)",100 % of control
same,T/C,"dose: 75.0 mg/kg/injection, schedule: Q01DX001 (ip), vehicle: other",97 % of control
CC(=O)OCC1CCC(NC(=O)N(CCF)N=O)CC1 (stereo not given),T/C,"dose: 9.0 mg/kg/injection, schedule: Q01DX001 (ip), vehicle: saline with Tween-80",106 % of control
same,T/C,"dose: 13.0 mg/kg/injection, schedule: Q01DX001 (ip), vehicle: saline with Tween-80",110 % of control
same,T/C,"dose: 20.0 mg/kg/injection, schedule: Q01DX001 (ip), vehicle: saline with Tween-80",100 % of control
same,T/C,"dose: 45.0 mg/kg/injection, schedule: Q01DX001 (ip), vehicle: saline with Tween-80",353 % of control
O=C(O)C1C(C(=O)O)C2C=CC1C21CCCC1 (stereo not given),T/C,"dose: 75.0 mg/kg/injection, schedule: Q01DX001 (ip), vehicle: saline",97 % of control
same,T/C,"dose: 150.0 mg/kg/injection, schedule: Q01DX001 (ip), vehicle: saline",97 % of control
same,T/C,"dose: 300.0 mg/kg/injection, schedule: Q01DX001 (ip), vehicle: saline",95 % of control
Cc1cc(=O)[nH]cn1,T/C,[7],100 % of control
same,T/C,[8],112 % of control
same,T/C,[9],94 % of control
O=[N+]([O-])c1ccc(O)c(C=NCC2CCCC[N-]2)c1.O=[N+]([O-])c1ccc(O)c(C=NCC2CCCC[N-]2)c1.[Ni+2] (stereo not given),T/C,[10],90 % of control
same,T/C,[11],90 % of control
Cc1ccc(N=NN(C)N=Nc2ccc(C)cc2)cc1,T/C,"dose: 50.0 mg/kg/injection, schedule: Q01DX001 (ip), vehicle: saline",98 % of control
same,T/C,"dose: 100.0 mg/kg/injection, schedule: Q01DX001 (ip), vehicle: saline",95 % of control
same,T/C,"dose: 200.0 mg/kg/injection, schedule: Q01DX001 (ip), vehicle: saline",95 % of control
same,T/C,"dose: 400.0 mg/kg/injection, schedule: Q01DX001 (ip), vehicle: saline",93 % of control
CCOC(=O)N(CCCCCCNC(c1ccccc1)S(=O)(=O)O)c1ccccc1 (stereo not given),T/C,"dose: 6.0 mg/kg/injection, schedule: Q01DX009 (ip), vehicle: saline",109 % of control
same,T/C,"dose: 12.0 mg/kg/injection, schedule: Q01DX009 (ip), vehicle: saline",103 % of control
same,T/C,"dose: 25.0 mg/kg/injection, schedule: Q01DX009 (ip), vehicle: saline",106 % of control
same,T/C,"dose: 50.0 mg/kg/injection, schedule: Q01DX009 (ip), vehicle: saline",97 % of control
same,T/C,[12],98 % of control
same,T/C,[6],86 % of control
C=Cc1nc2ccccc2[nH]1 (tested in a mixture with another compound),T/C,"dose: 5.0 mg/kg/injection, schedule: Q01DX001 (ip), vehicle: saline",95 % of control
same,T/C,"dose: 10.0 mg/kg/injection, schedule: Q01DX001 (ip), vehicle: saline",96 % of control
same,T/C,"dose: 20.0 mg/kg/injection, schedule: Q01DX001 (ip), vehicle: saline",96 % of control
same,T/C,"dose: 80.0 mg/kg/injection, schedule: Q01DX001 (ip), vehicle: saline",102 % of control
CCCCN(C)N=Nc1ccccc1C(=O)O,T/C,"dose: 6.25 mg/kg/injection, schedule: Q01DX009 (ip), vehicle: other",100 % of control
same,T/C,"dose: 12.5 mg/kg/injection, schedule: Q01DX009 (ip), vehicle: other",103 % of control
same,T/C,"dose: 25.0 mg/kg/injection, schedule: Q01DX009 (ip), vehicle: other",108 % of control
same,T/C,"dose: 50.0 mg/kg/injection, schedule: Q01DX009 (ip), vehicle: other",110 % of control
same,T/C,"dose: 100.0 mg/kg/injection, schedule: Q01DX009 (ip), vehicle: other",123 % of control
